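Grown in 96-well plates, cells were treated for 48 hours with each compound at five concentrations. Insufficient inhibition: endpoint recorded as highest concentration tested. GI50 = concentration required for 50% inhibition of growth.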 The source made the active and inactive calls. Cut-off read from the data, not from the text of the source: active = GI50 up to about 1.1 µM and inactive = higher. Where a SMILES comes first, the peptide text is derived from it. The star is where a group is joined. Cbz = O=C(OCc1ccccc1)*
Legend:
Assay in all cases: NCI anticancer screen, dose series, 48 h
HOP-92 = test system: HOP-92
OVCAR-5 = test system: OVCAR-5
SR = test system: SR
RPMI-8226 = test system: RPMI-8226
OVCAR-3 = test system: OVCAR-3
OVCAR-8 = test system: OVCAR-8
CCRF-CEM = test system: CCRF-CEM
NCI-H23 = test system: NCI-H23
NCI-H226 = test system: NCI-H226
MCF7 = test system: MCF7
PC-3 = test system: PC-3
HCC 2998 = test system: HCC 2998
KM12 = test system: KM12
HT-29 = test system: HT-29
SK-MEL-5 = test system: SK-MEL-5
DU-145 = test system: DU-145
HL-60 = test system: HL-60
BT-549 = test system: BT-549

COC(=O)C(CC(C)C)NC(=O)C(CCCNC(=N)N)NC(=O)OCc1ccccc1 (stereo not drawn) (Cbz-Arg-Leu-OMe; configuration not given here)
GI50 (HOP-92): > 100 µM (inactive)
GI50 (OVCAR-5): > 100 µM (inactive)
GI50 (SR): > 100 µM (inactive)
GI50 (RPMI-8226): > 100 µM (inactive)
GI50 (OVCAR-3): > 100 µM (inactive)
GI50 (OVCAR-8): > 100 µM (inactive)
GI50 (CCRF-CEM): > 100 µM (inactive)
GI50 (NCI-H23): > 100 µM (inactive)
GI50 (NCI-H226): > 100 µM (inactive)
GI50 (MCF7): > 100 µM (inactive)
GI50 (PC-3): > 100 µM (inactive)
GI50 (HCC 2998): > 100 µM (inactive)
GI50 (KM12): > 100 µM (inactive)
GI50 (HT-29): > 100 µM (inactive)
GI50 (SK-MEL-5): > 100 µM (inactive)
GI50 (DU-145): > 100 µM (inactive)
GI50 (HL-60): > 100 µM (inactive)
GI50 (BT-549): > 100 µM (inactive)

CCOC(=O)COc1ccc2c(C)cc(=O)oc2c1
GI50 (HOP-92): > 100 µM (inactive)
GI50 (OVCAR-5): > 100 µM (inactive)
GI50 (SR): > 100 µM (inactive)
GI50 (RPMI-8226): > 100 µM (inactive)
GI50 (OVCAR-3): > 100 µM (inactive)
GI50 (OVCAR-8): > 100 µM (inactive)
GI50 (CCRF-CEM): > 100 µM (inactive)
GI50 (NCI-H23): > 100 µM (inactive)
GI50 (NCI-H226): > 100 µM (inactive)
GI50 (MCF7): > 100 µM (inactive)
GI50 (PC-3): > 100 µM (inactive)
GI50 (HCC 2998): 34.4 µM (inactive)
GI50 (KM12): > 100 µM (inactive)
GI50 (HT-29): > 100 µM (inactive)
GI50 (SK-MEL-5): > 100 µM (inactive)
GI50 (DU-145): > 100 µM (inactive)
GI50 (HL-60): > 100 µM (inactive)
GI50 (BT-549): > 100 µM (inactive)

C(=N\Nc1ccc(-c2nc3ccccc3[nH]2)cc1)/c1c(-c2ccc(Cc3ccccc3)cc2)[nH]c2ccccc12
GI50 (HOP-92): 4.09 µM (inactive)
GI50 (OVCAR-5): 26.1 µM (inactive)
GI50 (SR): 2.15 µM (inactive)
GI50 (RPMI-8226): 3.08 µM (inactive)
GI50 (OVCAR-3): 9.44 µM (inactive)
GI50 (OVCAR-8): 7.91 µM (inactive)
GI50 (CCRF-CEM): 5.06 µM (inactive)
GI50 (NCI-H23): 8.79 µM (inactive)
GI50 (NCI-H226): > 94.4 µM (inactive)
GI50 (MCF7): 5.06 µM (inactive)
GI50 (PC-3): 4.86 µM (inactive)
GI50 (HCC 2998): 3.83 µM (inactive)
GI50 (KM12): 4.37 µM (inactive)
GI50 (HT-29): 3.67 µM (inactive)
GI50 (SK-MEL-5): 6.41 µM (inactive)
GI50 (DU-145): 16.8 µM (inactive)
GI50 (HL-60): 7.06 µM (inactive)
GI50 (BT-549): 4.1 µM (inactive)

O=C1/C(=C/c2ccc(O)cc2)CCc2ccccc21
GI50 (HOP-92): 36.2 µM (inactive)
GI50 (OVCAR-5): 35.7 µM (inactive)
GI50 (SR): 5.45 µM (inactive)
GI50 (RPMI-8226): 6.5 µM (inactive)
GI50 (OVCAR-3): 23.3 µM (inactive)
GI50 (OVCAR-8): 27.2 µM (inactive)
GI50 (CCRF-CEM): 1.7 µM (inactive)
GI50 (NCI-H23): 23.4 µM (inactive)
GI50 (NCI-H226): 24.5 µM (inactive)
GI50 (MCF7): 6.38 µM (inactive)
GI50 (PC-3): 16.8 µM (inactive)
GI50 (HCC 2998): 22 µM (inactive)
GI50 (KM12): 17.2 µM (inactive)
GI50 (HT-29): 21.5 µM (inactive)
GI50 (SK-MEL-5): 16.9 µM (inactive)
GI50 (DU-145): 24.8 µM (inactive)
GI50 (HL-60): 6.14 µM (inactive)
GI50 (BT-549): 20 µM (inactive)

COc1cc(/C=C/C(=O)C2(C(=O)/C=C/c3cc(OC)c(OC)c(OC)c3)CCCCC2)cc(OC)c1OC
GI50 (HOP-92): 1.22 µM (inactive)
GI50 (OVCAR-5): 94.2 µM (inactive)
GI50 (SR): 19.4 µM (inactive)
GI50 (RPMI-8226): 18.3 µM (inactive)
GI50 (OVCAR-3): 23.3 µM (inactive)
GI50 (OVCAR-8): 24.1 µM (inactive)
GI50 (CCRF-CEM): 34.3 µM (inactive)
GI50 (NCI-H23): 53.3 µM (inactive)
GI50 (NCI-H226): 32.7 µM (inactive)
GI50 (MCF7): 27.6 µM (inactive)
GI50 (PC-3): 27.2 µM (inactive)
GI50 (HCC 2998): 58.6 µM (inactive)
GI50 (KM12): 26.6 µM (inactive)
GI50 (HT-29): 35.7 µM (inactive)
GI50 (SK-MEL-5): 34.8 µM (inactive)
GI50 (DU-145): 32.7 µM (inactive)
GI50 (HL-60): 52 µM (inactive)
GI50 (BT-549): 29.6 µM (inactive)

O=c1cc(-c2ccc(O)cc2)oc2cc(O[C@@H]3O[C@H](CO)[C@@H](O)[C@H](O)[C@H]3O)cc(O)c12 [APIGETRIN]
GI50 (HOP-92): 83.9 µM (inactive)
GI50 (OVCAR-5): > 100 µM (inactive)
GI50 (SR): 0.0752 µM (active)
GI50 (RPMI-8226): > 100 µM (inactive)
GI50 (OVCAR-3): > 100 µM (inactive)
GI50 (OVCAR-8): 31.7 µM (inactive)
GI50 (CCRF-CEM): 75.9 µM (inactive)
GI50 (NCI-H23): 50.8 µM (inactive)
GI50 (NCI-H226): 26.7 µM (inactive)
GI50 (MCF7): > 100 µM (inactive)
GI50 (PC-3): 33.2 µM (inactive)
GI50 (HCC 2998): 36.1 µM (inactive)
GI50 (KM12): 13.9 µM (inactive)
GI50 (HT-29): 53 µM (inactive)
GI50 (SK-MEL-5): 46 µM (inactive)
GI50 (DU-145): 58.3 µM (inactive)
GI50 (HL-60): 80.5 µM (inactive)
GI50 (BT-549): 24.4 µM (inactive)

Clc1ccc(/C=N/c2ccc3c(c2)Cc2ccccc2-3)c(Cl)c1
GI50 (HOP-92): > 100 µM (inactive)
GI50 (OVCAR-5): > 100 µM (inactive)
GI50 (SR): 45.9 µM (inactive)
GI50 (RPMI-8226): 75.2 µM (inactive)
GI50 (OVCAR-3): > 100 µM (inactive)
GI50 (OVCAR-8): > 100 µM (inactive)
GI50 (CCRF-CEM): 88.5 µM (inactive)
GI50 (NCI-H23): > 100 µM (inactive)
GI50 (NCI-H226): > 100 µM (inactive)
GI50 (MCF7): > 100 µM (inactive)
GI50 (PC-3): > 100 µM (inactive)
GI50 (KM12): > 100 µM (inactive)
GI50 (HT-29): > 100 µM (inactive)
GI50 (SK-MEL-5): > 100 µM (inactive)
GI50 (DU-145): > 100 µM (inactive)
GI50 (HL-60): 77.1 µM (inactive)
GI50 (BT-549): > 100 µM (inactive)

Cc1nc2ccc(S(=O)(=O)Nc3ccccc3)cc2c(=O)n1NC(=O)CNc1ccccc1
GI50 (HOP-92): > 100 µM (inactive)
GI50 (OVCAR-5): > 100 µM (inactive)
GI50 (SR): > 100 µM (inactive)
GI50 (RPMI-8226): > 100 µM (inactive)
GI50 (OVCAR-3): > 100 µM (inactive)
GI50 (OVCAR-8): > 100 µM (inactive)
GI50 (CCRF-CEM): > 100 µM (inactive)
GI50 (NCI-H23): > 100 µM (inactive)
GI50 (NCI-H226): > 100 µM (inactive)
GI50 (MCF7): > 100 µM (inactive)
GI50 (PC-3): > 100 µM (inactive)
GI50 (HCC 2998): > 100 µM (inactive)
GI50 (KM12): > 100 µM (inactive)
GI50 (HT-29): > 100 µM (inactive)
GI50 (DU-145): > 100 µM (inactive)
GI50 (HL-60): > 100 µM (inactive)
GI50 (BT-549): > 100 µM (inactive)

COc1ccc(C(=O)/C=C/c2ccc(O)c(O)c2)c(OC)c1
GI50 (HOP-92): 28.8 µM (inactive)
GI50 (OVCAR-5): 15.6 µM (inactive)
GI50 (SR): 0.337 µM (active)
GI50 (RPMI-8226): 0.7 µM (active)
GI50 (OVCAR-3): 0.242 µM (active)
GI50 (OVCAR-8): 10.8 µM (inactive)
GI50 (CCRF-CEM): 0.508 µM (active)
GI50 (NCI-H23): 2.31 µM (inactive)
GI50 (NCI-H226): 6.64 µM (inactive)
GI50 (MCF7): 0.301 µM (active)
GI50 (PC-3): 4.8 µM (inactive)
GI50 (HCC 2998): 1.21 µM (inactive)
GI50 (KM12): 1.01 µM (active)
GI50 (HT-29): 7.76 µM (inactive)
GI50 (SK-MEL-5): 1.85 µM (inactive)
GI50 (DU-145): 3.16 µM (inactive)
GI50 (HL-60): 0.377 µM (active)
GI50 (BT-549): 3.26 µM (inactive)

N=c1oc2ccccc2cc1C(=O)Nc1cccc2ccccc12
GI50 (HOP-92): > 100 µM (inactive)
GI50 (OVCAR-5): > 100 µM (inactive)
GI50 (SR): > 100 µM (inactive)
GI50 (RPMI-8226): > 100 µM (inactive)
GI50 (OVCAR-3): > 100 µM (inactive)
GI50 (OVCAR-8): > 100 µM (inactive)
GI50 (CCRF-CEM): > 100 µM (inactive)
GI50 (NCI-H23): > 100 µM (inactive)
GI50 (NCI-H226): > 100 µM (inactive)
GI50 (MCF7): 83.2 µM (inactive)
GI50 (PC-3): > 100 µM (inactive)
GI50 (HCC 2998): > 100 µM (inactive)
GI50 (KM12): > 100 µM (inactive)
GI50 (HT-29): > 100 µM (inactive)
GI50 (SK-MEL-5): > 100 µM (inactive)
GI50 (DU-145): > 100 µM (inactive)
GI50 (HL-60): > 100 µM (inactive)
GI50 (BT-549): > 100 µM (inactive)

CCOc1cc(NC(C)=O)ccc1C(=O)NN1C(=O)CSC1c1ccc(O)c(OC)c1 (stereo unspecified)
GI50 (HOP-92): 59.7 µM (inactive)
GI50 (OVCAR-5): > 100 µM (inactive)
GI50 (SR): 50.9 µM (inactive)
GI50 (RPMI-8226): 40.4 µM (inactive)
GI50 (OVCAR-3): 58.7 µM (inactive)
GI50 (OVCAR-8): 23.9 µM (inactive)
GI50 (CCRF-CEM): 40.8 µM (inactive)
GI50 (NCI-H23): 61.7 µM (inactive)
GI50 (NCI-H226): 69.5 µM (inactive)
GI50 (MCF7): 44.7 µM (inactive)
GI50 (PC-3): 44 µM (inactive)
GI50 (HCC 2998): 32.1 µM (inactive)
GI50 (KM12): 42.9 µM (inactive)
GI50 (HT-29): 73.6 µM (inactive)
GI50 (SK-MEL-5): 52.1 µM (inactive)
GI50 (DU-145): > 100 µM (inactive)
GI50 (HL-60): 41.5 µM (inactive)
GI50 (BT-549): 28 µM (inactive)
